{"source": "patent US20240172747A1", "about": "“USE OF SORBIC ACID AND SALTS THEREOF AS A NEMATOCIDE” (GONELLA INVENT SOCIETA' A RESPONSABILITA' LIMITATA […], priority 2021, published 2024)", "key": {"[1]": {"test_system": "larvae of the genus Meloydogine, Heterodera and Globodera", "details": "laboratory tests"}, "[2]": {"details": "OECD Test Guideline 403; cited from earlier work"}, "[3]": {"details": "25° C.; cited from earlier work"}, "[4]": {"test_system": "Meloidogyne incognita eggs", "protocol": "In order to evaluate the efficacy in containing the root-knot nematode Meloidogyne incognita, several in vitro experimental tests were carried out using a sorbic acid solution containing 1 mg/ml of active substance at 98% purity. The average of the tests is reported.\nThis test concentration was tested on unsegmented and embryonated eggs of M. incognita.\nThe tests carried out were developed in vitro using double concave glass lenses, by introducing 2 ml of the test solution containing 1 mg/ml of sorbic acid, or sterile water in the case of the control. The incubation took place at a room temperature of 22° C., in the dark. The population of M. incognita was from plants raised in an open field of tomatoes (Solanum lycopersicum).\nUnsegmented and embryonated eggs: the eggs were collected from the ovisacs and placed in a double concave glass lens in the presence of the solution to be tested.\nCounts of hatched larvae were carried out for 7 days with daily counting and microscopic observation."}, "[5]": {"test_system": "insects or mites", "details": "laboratory tests"}, "[6]": {"test_system": "nematodes", "details": "laboratory test in a jar, after application", "source_text": "A dose ranging from 0.0001% to 0.001% is considered a “sub-lethal” or “nematostatic” dose, and therefore is a dose which may not kill the nematode but inhibits its mobility and pest capacity."}, "[7]": {"details": "OECD Test Guideline 402; cited from earlier work"}, "[8]": {"test_system": "Meloidogyne J2 larvae", "test": "Motility/mortality test on Meloidogyne J2 larvae in suspension", "format": "in vivo", "details": "single replicates; for READING % IMMOBILE J2 @ 2 H: 2 h exposure; for % DEAD J2 @ 24 H: 24 h exposure", "protocol": "Extraction of root-knot nematodes taken from soil cultivated with basil (Ocimum basilicum) with strong infestation (J2 larvae) from about 500 cc of soil by means of a wool-paper filter (EPPO Bulletin 13,2013) and concentration in distilled water.\nThe Tests were established by adding an amount of stock solution to one ml of nematode suspension, so as to obtain the final established concentrations.\nNematodes motility parameters were evaluated after 2 h and after 24 h exposure of the J2 larvae to the nematocidal substance.\nIn the first test, the count was carried out by microscopic observation of immobile nematodes after 2 hours exposure to the product, to evaluate a possible […] effect of the substance. In the second test, the count was carried out by microscopic observation of the nematodes considered dead with strong signs of tissue degeneration (thickening and blistering in the nematode body accompanied by the final folding of the body at right angle)."}, "[9]": {"test_system": "M. incognita nematodes", "source_text": "The trial was followed by a test center (third body) in the Vittoria area (RG) in greenhouses with continuous cycles of courgette (Cucurbita pepo) subjected to strong pressure of M. incognita nematodes. […] First application at day 1 after transplantation (DAT), second application at day 7 DAT, third application at day 21 DAT.\nThe follow-up was scheduled at day 45 (FIG. 5 and FIG. 6) and day 90 after the first treatment. […] Following this screening trial, new large-scale tests will begin to establish optimal doses, modes and volume of distribution. From Table 3 below, it was possible to evaluate the % of nematode attack with a count of the damage present on the root system (galls)."}, "[10]": {"details": "TEST 1: Potassium Sorbate (80% purity) 250 μg/ml"}, "[11]": {"details": "TEST 2: Potassium Sorbate 500 μg/ml"}, "[12]": {"details": "TEST 3: Potassium Sorbate 1 mg/ml"}}, "note": "“And” between values parts separate entries of the source, which are not always exact repeats. Equal entries are not always repeated."}
{"compound": "C/C=C/C=C/C(=O)[O-].[Na+]", "note": "[Sodium Sorbate, sodium sorbate]", "values": [{"measurement": "effect on larvae of the genus Meloydogine, on Heterodera and Globodera", "setting": "[1]", "result": "had an effect"}]}
{"compound": "C/C=C/C=C/C(=O)O", "note": "[Sorbic Acid, 2,4-hexadienoic acid]", "values": [{"measurement": "Lethal Concentration 50: LC50", "setting": "[2]", "result": 5.1, "unit": "mg·L"}, {"measurement": "partition coefficient: n-octanol/water, log Pow", "setting": "[3]", "result": 1.32}, {"measurement": "effect on larvae of the genus Meloydogine, on Heterodera and Globodera", "setting": "[1]", "result": "had an effect"}, {"measurement": "hatched larvae, Day 1 DAT", "setting": "[4]; 1 mg/ml sorbic acid (98% purity), 22° C., dark, Day 1, average of tests", "result": 0}, {"measurement": "hatched larvae, Day 2 DAT", "setting": "[4]; 1 mg/ml sorbic acid, 22° C., dark, Day 2, average of tests", "result": 0, "unit": "%"}, {"measurement": "hatched larvae, Day 3 DAT", "setting": "[4]; 1 mg/ml sorbic acid, 22° C., dark, Day 3, average of tests", "result": 0, "unit": "%"}, {"measurement": "hatched larvae, Day 4 DAT", "setting": "[4]; 1 mg/ml sorbic acid, 22° C., dark, Day 4, average of tests", "result": 0, "unit": "%"}, {"measurement": "hatched larvae, Day 5 DAT", "setting": "[4]; 1 mg/ml sorbic acid, 22° C., dark, Day 5, average of tests", "result": 0, "unit": "%"}, {"measurement": "hatched larvae, Day 6 DAT", "setting": "[4]; 1 mg/ml sorbic acid, 22° C., dark, Day 6, average of tests", "result": 1, "unit": "%"}, {"measurement": "hatched larvae, Day 7 DAT", "setting": "[4]; 1 mg/ml sorbic acid, 22° C., dark, Day 7, average of tests", "result": 3, "unit": "%"}, {"measurement": "efficacy on egg embryogenesis and larvae", "setting": "[4]; 1 mg/ml sorbic acid, in vitro", "result": "allowing the inhibition of egg embryogenesis and excellent action on larvae, both free and included in ovisacs"}, {"measurement": "insecticidal or acaricidal activity", "setting": "[5]", "result": "no insecticidal activity (insect kingdom) or acaricidal activity has been found"}, {"measurement": "nematostatic effect: number of immature forms", "setting": "[6]", "result": "a greater number of immature forms"}, {"measurement": "Lethal Dose 50: LD50", "setting": "[7]", "result": "> 3000", "unit": "mg/kg"}]}
{"compound": "C/C=C/C=C/C(=O)[O-].C/C=C/C=C/C(=O)[O-].[Ca+2]", "note": "[Calcium Sorbate, calcium sorbate]", "values": [{"measurement": "effect on larvae of the genus Meloydogine, on Heterodera and Globodera", "setting": "[1]", "result": "had an effect"}]}
{"compound": "Abamectin [REFERENCE, reference compound]", "values": [{"measurement": "READING % IMMOBILE J2 @ 2 H", "setting": "[8]; Reference: Abamectin 90 μg/ml", "result": "100% and 99% (2×) and 98%"}, {"measurement": "% DEAD J2 @ 24 H", "setting": "[8]; Reference: Abamectin 90 μg/ml", "result": "100% (3×) and 99%"}]}
{"compound": "C/C=C/C=C/C(=O)[O-].[K+]", "note": "[Potassium Sorbate, potassium sorbate]", "values": [{"measurement": "effect on larvae of the genus Meloydogine, on Heterodera and Globodera", "setting": "[1]", "result": "had an effect"}, {"measurement": "READING % IMMOBILE J2 @ 2 H", "setting": "[8]; [10]", "result": "10% and 5% and 7% and 2%"}, {"measurement": "% DEAD J2 @ 24 H", "setting": "[8]; [10]", "result": "15% and 12% and 18% and 10%"}, {"measurement": "READING % IMMOBILE J2 @ 2 H", "setting": "[8]; [11]", "result": "40% and 38% and 45% and 43%"}, {"measurement": "% DEAD J2 @ 24 H", "setting": "[8]; [11]", "result": "80% and 76% and 75% (2×)"}, {"measurement": "READING % IMMOBILE J2 @ 2 H", "setting": "[8]; [12]", "result": "75% (2×) and 78% and 80%"}, {"measurement": "% DEAD J2 @ 24 H", "setting": "[8]; [12]", "result": "98% and 99% and 100% and 96%"}, {"measurement": "Average weight of a courgette", "setting": "[9]; 10 kg/ha", "result": 0.24, "unit": "kg"}, {"measurement": "Average production of a plant, No. courgettes", "setting": "[9]; 10 kg/ha, mean of 20 plants", "result": 15.75}, {"measurement": "Average production of a plant, Weight in kg", "setting": "[9]; 10 kg/ha, mean of 20 plants", "result": 3.78, "unit": "kg"}, {"measurement": "toxicity or damage of the root system", "setting": "[9]; field application, courgette", "result": "without leading to toxicity or damage of the root system"}]}
